The results in this text go back to patent USRE48267E1, “Variants of C-type natriuretic peptide” (priority 2009, dated 2020).

The target of one experiment is T1, NPR-B (Mus musculus, UniProt Q6VVW5).
T1 construct: Murine NIH3T3 cells express endogenously the CNP signaling receptor, NPR-B; endogenous in cells; host or cells: NIH3T3
T1 sequence (Q6VVW5 17-1047): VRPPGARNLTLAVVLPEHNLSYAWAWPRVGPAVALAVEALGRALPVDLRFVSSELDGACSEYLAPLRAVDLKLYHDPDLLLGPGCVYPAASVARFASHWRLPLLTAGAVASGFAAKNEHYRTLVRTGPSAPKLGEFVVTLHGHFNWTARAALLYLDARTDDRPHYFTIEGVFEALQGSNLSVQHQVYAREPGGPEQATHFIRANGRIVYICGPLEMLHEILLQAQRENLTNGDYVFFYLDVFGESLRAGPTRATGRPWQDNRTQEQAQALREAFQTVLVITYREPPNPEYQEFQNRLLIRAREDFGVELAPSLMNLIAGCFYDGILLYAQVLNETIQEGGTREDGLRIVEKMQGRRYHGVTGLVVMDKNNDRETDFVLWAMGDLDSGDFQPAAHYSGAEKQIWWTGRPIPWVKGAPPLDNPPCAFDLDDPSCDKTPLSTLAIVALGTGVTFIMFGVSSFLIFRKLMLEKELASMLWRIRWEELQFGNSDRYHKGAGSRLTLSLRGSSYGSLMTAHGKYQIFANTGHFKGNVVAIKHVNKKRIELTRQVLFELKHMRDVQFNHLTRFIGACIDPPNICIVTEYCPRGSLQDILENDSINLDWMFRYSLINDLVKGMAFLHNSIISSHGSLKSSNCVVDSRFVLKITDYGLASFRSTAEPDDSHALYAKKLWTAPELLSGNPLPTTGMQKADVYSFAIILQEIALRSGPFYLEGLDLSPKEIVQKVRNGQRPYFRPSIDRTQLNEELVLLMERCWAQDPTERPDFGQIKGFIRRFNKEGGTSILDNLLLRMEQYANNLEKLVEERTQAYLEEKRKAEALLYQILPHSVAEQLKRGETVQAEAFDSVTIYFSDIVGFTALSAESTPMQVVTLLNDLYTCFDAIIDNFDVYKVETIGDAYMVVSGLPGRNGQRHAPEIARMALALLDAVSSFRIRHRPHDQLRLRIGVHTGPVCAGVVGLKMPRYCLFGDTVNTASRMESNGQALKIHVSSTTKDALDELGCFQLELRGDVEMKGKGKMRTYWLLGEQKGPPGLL
Nature of the experiment: stimulation of cGMP production in NIH3T3 cells. The experiment is classed as cell-based, murine. Particulars: NIH3T3 cells. In short, it runs like this:
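NIH3T3 cells (endogenous murine NPR-B) preincubated 15 min at 37° C. in PBS/DMEM with 0.75 mM isobutylmethylxanthine, then given CNP variant for 15 min at 37° C. cGMP in lysates by CatchPoint cGMP assay, duplicates. Values at 10 nM or 1 uM variant normalized to cell number and to 1 uM wtCNP22.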

The subject of a further experiment is FGFR3^ach mice. Nature of the experiment: bone growth biomarkers in FGFR3^ach mice. The format is in vivo, mouse. The conditions noted are these: 200 nmol/kg s.c. daily, Day 36. Here is the method:
Plasma and serum were collected during the study. Harvested plasma was stored with 10× protease inhibitor at −80° C. until analysis. cGMP levels were measured 15 minutes post-injection on Day 36 from K2-ETDA plasma collection tubes. Fragments of cleaved collagen type II (cartilage-associated biomarkers), osteocalcin (bone-associated biomarker), and IgG (relating to immunogenicity) were measured from terminal bleed serum at the end of the study (Day 37). cGMP was measured using a commercially available ELISA kit (Cayman Chemical Co., Cat. No. 581021.1), cleaved collagen type II (Cartilaps) was measured using a commercially available kit from Immunodiagnostic Systems (Cat. No. 3CAL4000), and osteocalcin was measured using a commercially available kit from Biomedical Technologies Inc. (Stoughton, Mass.).

Each structure is given as a SMILES string. Where a SMILES comes first, the peptide text is derived from it. Bridges are numbered along the chain shown (N, C = ends). The star is where a group is joined. MeO(CH2CH2O)23CH2CH2CO = COCCOCCOCCOCCOCCOCCOCCOCCOCCOCCOCCOCCOCCOCCOCCOCCOCCOCCOCCOCCOCCOCCOCCOCCC(=O)*

For the compound `CC[C@H](C)[C@@H]1NC(=O)[C@H](CCCNC(=N)N)NC(=O)[C@H](CC(=O)O)NC(=O)[C@H](CC(C)C)NC(=O)[C@H](CCCCN)NC(=O)[C@H](CC(C)C)NC(=O)CNC(=O)[C@H](Cc2ccccc2)NC(=O)[C@@H](NC(=O)CNC(=O)[C@H](CCCNC(=N)N)NC(=O)[C@H](CO)NC(=O)[C@H](CC(C)C)NC(=O)CNC(=O)[C@H](CCCNC(=N)N)NC(=O)[C@H](CCCNC(=N)N)NC(=O)[C@H](CC(N)=O)NC(=O)[C@H](C)NC(=O)CNC(=O)CCOCCOCCOCCOCCOCCOCCOCCOCCOCCOCCOCCOCCOCCOCCOCCOCCOCCOCCOCCOCCOCCOCCOCCOC)CSSC[C@@H](C(=O)O)NC(=O)CNC(=O)[C@H](CC(C)C)NC(=O)CNC(=O)[C@H](CO)NC(=O)[C@H](CCSC)NC(=O)[C@H](CO)NC(=O)CNC1=O` [PEO24-GANRR-CNP22(K4R)] ({MeO(CH2CH2O)23CH2CH2CO}-GANRRGLSRGCFGLKLDRIGSMSGLGC-OH; disulfide 11-27), on NPR-B, the “NPR-B stimulation activity / cGMP production compared with wtCNP22 (in words)” value was “stimulated greater cGMP production than PEO24-CNP22 and PEO24-CNP22 (K4R)”. The “cGMP plasma levels 15 minutes post-injection, compared to vehicle” value in the experiment on FGFR3^ach mice was “increase”.
